# Laboratory results: patent publication US20240116893A1, “Compounds for Disease Treatment” (Duke University, priority 2021, published 2024)
# “Also recorded” adds a separate entry of the source. Where two headings read alike, the source gives them in different places.
# Assays:
# TAK1 [1] = target: T1, TAK1 (Homo sapiens (Human), UniProt O43318); assay: TAK1 kinase inhibition IC50 (TABLE 1; FIG. 1B selectivity screening); assay type: biochemical
# Target sequence in this assay (O43318 31-303): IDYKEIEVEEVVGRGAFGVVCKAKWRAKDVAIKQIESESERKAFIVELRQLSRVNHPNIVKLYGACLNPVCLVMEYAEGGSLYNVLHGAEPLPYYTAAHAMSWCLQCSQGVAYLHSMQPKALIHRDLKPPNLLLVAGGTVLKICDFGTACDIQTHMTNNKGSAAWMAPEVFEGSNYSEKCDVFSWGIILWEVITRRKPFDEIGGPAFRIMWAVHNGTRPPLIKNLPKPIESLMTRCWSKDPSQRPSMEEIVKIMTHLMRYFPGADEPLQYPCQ
# Target sequence in this assay (Q15750 468-497 partner): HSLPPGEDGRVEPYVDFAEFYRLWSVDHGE
# IRAK4 = IRAK4 (Homo sapiens (Human), UniProt Q9NWZ3); assay: IRAK4 kinase inhibition IC50 (TABLE 1; FIG. 1B selectivity screening); assay type: biochemical; settings: for Ratio IC50 (IRAK4)/IC50 (TAK1): selectivity for TAK1 over IRAK4
# THP-1 human macrophages = assay: Cytokine expression in THP-1 macrophages stimulated with LPS and IFNγ; assay type: cell-based; settings: for attenuation (reduction) of TNF expression: 10 μM, LPS and IFNγ, FIG. 1C
# Method: THP-1 cells were treated with 100 nM phorbol 12-myristate 13-acetate (PMA) for 72 hours in RPMI 1640X media. Cells were rested in PMA free media 24 hours prior to treatments. LPS (10 ng/mL) was used for pro-inflammatory stimulation.
# THP-1 cells were treated with 10 μM of designated drug or vehicle (DMSO) and 24 hours after treatment, supernatant was added to Human Cytokine XL proteome array (R&D Systems) in accordance with manufacturer protocol. Chemiluminescence was used to visualize protein quantities.
# To evaluate the anti-inflammatory effects of compounds 3, 5, and 6, THP-1 human macrophages were stimulated with LPS and IFNγ in the presence of TAK1 inhibitor (10 μM) or vehicle.
# [2] = Pharmacokinetics after oral gavage in rats (plasma and urine, LC-MS); assay type: in vivo, Sprague Dawley rats
# Method: All serum/drug samples were frozen and stored at −80° C., unless otherwise specified. […] This internal standard solution was used for tissue homogenization. LC-MS analysis was performed at the Duke Proteomics and Metabolomics Core Facility.
# CK1γ2 = CK1γ2 (Homo sapiens (Human), UniProt P78368); assay: Kinase panel of 146 human kinases at 10 μM; assay type: biochemical
# Description: (§1) Kinome selectivity of compound 5 was further screened using a kinase panel of 146 human kinases representing all gene family members within the human kinome.
# IRAK1 [3] = target: T2, IRAK1 (Homo sapiens (Human), UniProt P51617); assay: Kinase panel of 146 human kinases at 10 μM; assay type: biochemical
# Description: as §1
# MAP4K5 [4] = target: T3, MAP4K5 (Homo sapiens (Human), UniProt Q9Y4K4); assay: Kinase panel of 146 human kinases at 10 μM; assay type: biochemical
# Description: as §1
# NUAK1 = NUAK1 (Homo sapiens (Human), UniProt O60285); assay: Kinase panel of 146 human kinases at 10 μM; assay type: biochemical
# Description: as §1
# TAK1 [5] = target: T1, TAK1; assay: Kinase panel of 146 human kinases at 10 μM; assay type: biochemical
# Description: as §1
# Target sequence in this assay (O43318 1-303): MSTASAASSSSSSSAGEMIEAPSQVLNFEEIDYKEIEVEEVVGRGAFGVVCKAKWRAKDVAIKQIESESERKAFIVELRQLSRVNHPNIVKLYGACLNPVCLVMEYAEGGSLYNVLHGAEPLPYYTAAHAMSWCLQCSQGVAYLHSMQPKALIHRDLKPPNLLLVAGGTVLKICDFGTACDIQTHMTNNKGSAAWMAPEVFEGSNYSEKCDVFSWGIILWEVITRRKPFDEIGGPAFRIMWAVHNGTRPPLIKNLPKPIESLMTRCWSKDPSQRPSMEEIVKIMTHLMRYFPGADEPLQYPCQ
# Target sequence in this assay (Q15750 437-504 partner): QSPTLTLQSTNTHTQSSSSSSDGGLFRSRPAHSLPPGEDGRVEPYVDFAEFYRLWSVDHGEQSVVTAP
# ULK2 [6] = target: T4, ULK2 (Homo sapiens (Human), UniProt Q8IYT8); assay: Kinase panel of 146 human kinases at 10 μM; assay type: biochemical
# Description: as §1
# CAMKKβ-1 = CAMKKβ-1 (Homo sapiens (Human), UniProt Q96RR4); assay: Dose-response of top 10 kinases (FIG. 1A); assay type: biochemical; settings: read-out: half maximal inhibitory concentration (IC50) CAMKKβ-1
# Method: (§2) Next, dose-response experiments of the top 10 kinases inhibited by compound 5 in the initial kinome screen were conducted as described in EXAMPLE 5. […] The top 10 kinases were selected in an initial kinome screen.
# CLK2 = CLK2 (Homo sapiens (Human), UniProt P49760); assay: Dose-response of top 10 kinases (FIG. 1A); assay type: biochemical; settings: read-out: half maximal inhibitory concentration (IC50) CLK2
# Method: as §2
# CSNK1G2 = CSNK1G2 (Homo sapiens (Human), UniProt P78368); assay: Dose-response of top 10 kinases (FIG. 1A); assay type: biochemical; settings: read-out: half maximal inhibitory concentration (IC50) CSNK1G2
# Method: as §2
# GCK = GCK (Homo sapiens (Human), UniProt Q12851); assay: Dose-response of top 10 kinases (FIG. 1A); assay type: biochemical; settings: read-out: half maximal inhibitory concentration (IC50) GCK
# Method: as §2
# IRAK1 [7] = target: T2, IRAK1; assay: Dose-response of top 10 kinases (FIG. 1A); assay type: biochemical; settings: read-out: half maximal inhibitory concentration (IC50) IRAK1
# Method: as §2
# MAP4K5 [8] = target: T3, MAP4K5; assay: Dose-response of top 10 kinases (FIG. 1A); assay type: biochemical; settings: read-out: half maximal inhibitory concentration (IC50) MAP4K5
# Method: as §2
# MLK1 = MLK1 (Homo sapiens (Human), UniProt P80192); assay: Dose-response of top 10 kinases (FIG. 1A); assay type: biochemical; settings: read-out: half maximal inhibitory concentration (IC50) MLK1
# Method: as §2
# NUAK = NUAK (Homo sapiens (Human), UniProt O60285); assay: Dose-response of top 10 kinases (FIG. 1A); assay type: biochemical; settings: read-out: half maximal inhibitory concentration (IC50) NUAK
# Method: as §2
# TAK1 [9] = target: T1, TAK1; assay: Dose-response of top 10 kinases (FIG. 1A); assay type: biochemical; settings: read-out: half maximal inhibitory concentration (IC50) TAK1
# Method: as §2
# Target sequence in this assay (O43318 1-303): as the sequence (O43318 1-303) above
# Target sequence in this assay (Q15750 437-504 partner): as the sequence (Q15750 437-504 partner) above
# ULK2 [10] = target: T4, ULK2; assay: Dose-response of top 10 kinases (FIG. 1A); assay type: biochemical; settings: read-out: half maximal inhibitory concentration (IC50) ULK2
# Method: as §2
# [11] = tested on: Collagen Type II Induced Arthritis (CIA); assay: CIA mouse model of inflammatory arthritis; assay type: in vivo, DBA/1 mice; settings: for reduction of clinical arthritis score: QD, FIG. 5A; for reduction in disease clinical score (AUC): FIG. 5B
# [12] = tested on: Enbrel® refractory arthritis; assay: Enbrel refractory CIA rheumatoid arthritis mouse model; assay type: in vivo, mice; settings: twice daily PO after etanercept days 21-30; n=6; FIG. 4E
# Description: To that end, a recently developed pre-clinical model of Enbrel® refractory arthritis was utilized, in which mice develop neutralizing antibodies towards Enbrel® causing disease relapse mirroring patient populations. Using this model, mice (n=6) were initially treated with Enbrel® on days 21-30 until loss of efficacy (determined by an arthritic score of 1.5) around study days 29 to 31 showing the development of neutralizing antibodies and disease progression. At this point, a first treatment group was switched to once daily vehicle (DMSO, PO) from day 30 to day 36, and a second treatment group was switched to twice daily compound 5 (PO).
# [13] = Maximum tolerated dose / 14-day oral toxicology study; assay type: in vivo; settings: 5, 30, 50 and 100 mg/kg PO once daily, 14 days
# Method: Maximum tolerated dose studies and toxicology of compound 5 further established the safety and tolerance of this compound. Here, mice were treated daily with compound 5 (PO) at 5, 30, 50 and 100 mg/kg dosing for […] consecutive days. Daily body weights were taken as well as clinical observations.
# Next, and as further described in EXAMPLE 9, a 14-day toxicology study of orally administered compound 5 in CD-1 mice (n=4) was conducted, using daily oral doses of 5, 30, 50 and 100 mg/kg of compound 5. In this study, the change in body weight from baseline as well as the weight of various organs were measured.
# Water solubility = assay type: physicochemical
# [14] = Bioavailability of compound 1 (takinib); settings: in vivo
# [15] = 50 mg/kg IP, all joints, FIG. 3E
# Chain of IRAK4 (Q9NWZ3 whole entry): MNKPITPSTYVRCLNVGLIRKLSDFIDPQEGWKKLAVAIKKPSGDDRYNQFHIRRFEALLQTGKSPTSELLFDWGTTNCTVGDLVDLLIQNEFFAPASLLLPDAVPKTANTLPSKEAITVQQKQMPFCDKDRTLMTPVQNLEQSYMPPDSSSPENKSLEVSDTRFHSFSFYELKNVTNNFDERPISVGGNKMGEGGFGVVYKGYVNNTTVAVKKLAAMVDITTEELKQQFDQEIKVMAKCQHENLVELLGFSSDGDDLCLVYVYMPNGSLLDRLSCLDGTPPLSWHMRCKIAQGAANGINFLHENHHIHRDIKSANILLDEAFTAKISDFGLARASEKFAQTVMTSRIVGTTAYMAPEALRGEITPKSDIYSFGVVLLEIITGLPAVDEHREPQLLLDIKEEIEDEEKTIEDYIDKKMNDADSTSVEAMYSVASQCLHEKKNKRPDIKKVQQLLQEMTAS
# T3 sequence (Q9Y4K4 whole entry): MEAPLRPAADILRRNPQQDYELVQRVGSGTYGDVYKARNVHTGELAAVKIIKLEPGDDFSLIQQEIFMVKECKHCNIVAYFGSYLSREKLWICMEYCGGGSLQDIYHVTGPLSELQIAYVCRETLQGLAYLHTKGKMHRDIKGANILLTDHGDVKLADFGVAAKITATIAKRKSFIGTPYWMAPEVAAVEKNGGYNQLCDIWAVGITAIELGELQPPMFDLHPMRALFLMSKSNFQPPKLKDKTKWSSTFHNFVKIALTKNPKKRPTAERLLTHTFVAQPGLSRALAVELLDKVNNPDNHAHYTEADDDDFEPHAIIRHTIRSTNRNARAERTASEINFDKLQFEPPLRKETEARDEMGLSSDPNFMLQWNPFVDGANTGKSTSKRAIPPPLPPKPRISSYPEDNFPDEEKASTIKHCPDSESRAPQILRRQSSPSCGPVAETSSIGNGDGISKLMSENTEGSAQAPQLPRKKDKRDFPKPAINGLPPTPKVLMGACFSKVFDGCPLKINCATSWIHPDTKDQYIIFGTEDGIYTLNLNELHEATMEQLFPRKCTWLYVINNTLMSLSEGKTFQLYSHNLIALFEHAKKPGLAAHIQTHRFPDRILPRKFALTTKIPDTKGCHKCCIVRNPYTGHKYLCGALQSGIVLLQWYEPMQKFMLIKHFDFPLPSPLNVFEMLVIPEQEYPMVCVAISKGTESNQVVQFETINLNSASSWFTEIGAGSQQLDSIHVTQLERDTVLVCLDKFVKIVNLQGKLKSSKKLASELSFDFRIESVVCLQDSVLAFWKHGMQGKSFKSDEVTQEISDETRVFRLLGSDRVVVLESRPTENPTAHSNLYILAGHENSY
# T2 sequence (P51617 whole entry): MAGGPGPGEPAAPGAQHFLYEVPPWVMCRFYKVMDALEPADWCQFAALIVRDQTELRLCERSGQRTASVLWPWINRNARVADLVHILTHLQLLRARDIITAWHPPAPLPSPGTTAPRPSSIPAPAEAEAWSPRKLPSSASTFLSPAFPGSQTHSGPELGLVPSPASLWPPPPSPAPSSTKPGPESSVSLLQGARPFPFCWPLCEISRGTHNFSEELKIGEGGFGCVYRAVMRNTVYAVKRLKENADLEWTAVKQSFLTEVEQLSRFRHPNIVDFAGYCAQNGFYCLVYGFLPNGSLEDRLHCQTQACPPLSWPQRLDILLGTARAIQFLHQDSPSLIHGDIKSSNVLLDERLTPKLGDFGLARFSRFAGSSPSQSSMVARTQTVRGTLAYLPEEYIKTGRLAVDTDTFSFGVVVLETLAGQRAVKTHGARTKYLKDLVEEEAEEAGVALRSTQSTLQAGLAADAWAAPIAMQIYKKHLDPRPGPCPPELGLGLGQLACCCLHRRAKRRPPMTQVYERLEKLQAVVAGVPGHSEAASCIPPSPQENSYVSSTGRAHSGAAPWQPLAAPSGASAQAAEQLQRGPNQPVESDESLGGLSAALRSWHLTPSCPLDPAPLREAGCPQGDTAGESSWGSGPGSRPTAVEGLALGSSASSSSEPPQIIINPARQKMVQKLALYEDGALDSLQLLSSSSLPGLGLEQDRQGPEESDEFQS
# T4 sequence (Q8IYT8 whole entry): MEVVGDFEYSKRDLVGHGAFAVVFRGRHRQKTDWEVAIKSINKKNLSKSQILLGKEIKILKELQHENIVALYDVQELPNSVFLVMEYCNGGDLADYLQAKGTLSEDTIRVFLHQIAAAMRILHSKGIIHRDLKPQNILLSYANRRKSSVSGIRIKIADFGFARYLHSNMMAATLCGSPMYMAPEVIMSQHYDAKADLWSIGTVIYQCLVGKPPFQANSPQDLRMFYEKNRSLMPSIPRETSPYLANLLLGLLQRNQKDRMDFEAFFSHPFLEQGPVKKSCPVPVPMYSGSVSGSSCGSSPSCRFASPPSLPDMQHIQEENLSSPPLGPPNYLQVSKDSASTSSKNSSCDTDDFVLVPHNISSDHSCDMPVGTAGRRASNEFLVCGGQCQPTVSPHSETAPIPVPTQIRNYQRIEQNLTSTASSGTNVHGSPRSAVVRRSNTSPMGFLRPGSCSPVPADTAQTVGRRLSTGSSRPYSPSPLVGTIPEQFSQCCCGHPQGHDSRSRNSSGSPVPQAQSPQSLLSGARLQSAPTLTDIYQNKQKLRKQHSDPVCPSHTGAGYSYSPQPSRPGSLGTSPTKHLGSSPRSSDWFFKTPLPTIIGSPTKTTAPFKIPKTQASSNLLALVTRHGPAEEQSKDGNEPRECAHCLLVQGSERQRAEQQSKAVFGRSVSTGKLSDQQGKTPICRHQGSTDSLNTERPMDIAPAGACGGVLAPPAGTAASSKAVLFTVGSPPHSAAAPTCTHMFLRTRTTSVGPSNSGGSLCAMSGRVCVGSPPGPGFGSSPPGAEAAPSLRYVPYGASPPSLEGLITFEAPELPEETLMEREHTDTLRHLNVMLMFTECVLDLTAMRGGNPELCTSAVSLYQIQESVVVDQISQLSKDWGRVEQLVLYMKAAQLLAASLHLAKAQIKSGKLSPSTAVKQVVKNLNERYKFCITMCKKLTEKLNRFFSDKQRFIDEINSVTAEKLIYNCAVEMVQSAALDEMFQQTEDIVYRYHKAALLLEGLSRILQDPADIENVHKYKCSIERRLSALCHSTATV
# Chain of CK1γ2 (P78368 whole entry): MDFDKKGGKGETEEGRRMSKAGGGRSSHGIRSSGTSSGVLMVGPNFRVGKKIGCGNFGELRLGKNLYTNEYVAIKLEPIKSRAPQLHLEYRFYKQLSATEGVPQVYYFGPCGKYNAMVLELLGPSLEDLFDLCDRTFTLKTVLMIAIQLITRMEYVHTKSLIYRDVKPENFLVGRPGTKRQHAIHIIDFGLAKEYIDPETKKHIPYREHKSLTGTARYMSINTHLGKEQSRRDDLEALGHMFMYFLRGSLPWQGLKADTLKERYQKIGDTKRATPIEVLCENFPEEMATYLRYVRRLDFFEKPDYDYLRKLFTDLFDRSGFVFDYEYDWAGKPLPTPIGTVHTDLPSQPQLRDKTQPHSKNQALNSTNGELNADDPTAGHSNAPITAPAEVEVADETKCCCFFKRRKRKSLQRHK
# Chain of CSNK1G2 (P78368 whole entry): as above
compound,measurement,setting,value
NC(=O)c1cccc(C(=O)/N=c2\[nH]c3cc(CN4CCCCC4)ccc3n2C2CCC(O)CC2)c1 (stereo not shown) [Compound 3],IC50,TAK1 [1]; read-out: IC50 (TAK1),2.8 nM
same,IC50,IRAK4; read-out: IC50 (IRAK4),8.5 nM
same,Ratio IC50 (IRAK4)/IC50 (TAK1),IRAK4,3
same,attenuation (reduction) of TNF expression,THP-1 human macrophages,2.5 fold
same,urine levels,[2]; 50 mg/kg oral gavage,M urine levels up to 24 hours post gavage
same,plasma levels across all timepoints,"[2]; 50 mg/kg oral gavage, 1-24 hours",low nM
CCCn1/c(=N/C(=O)c2cccc(C(N)=O)c2)[nH]c2ccc(CO)cc21 [Compound 4],IC50,TAK1 [1]; read-out: IC50 (TAK1),2.6 nM
same,IC50,IRAK4; read-out: IC50 (IRAK4),48 nM
same,Ratio IC50 (IRAK4)/IC50 (TAK1),IRAK4,18
CCCn1/c(=N/C(=O)c2cccc(C(N)=O)c2)[nH]c2ccc(CN3CCCCC3)cc21 [Compound 5],IC50,"TAK1 [1]; selectivity screening, FIG. 1B, read-out: TAK1 inhibition IC50",2.5 nM
same,IC50,IRAK4; read-out: IC50 (IRAK4),2500 nM
same,IC50,"IRAK4; selectivity screening, FIG. 1B, read-out: IRAK4 inhibition IC50",2510 nM
same,enzymatic activity of CK1γ2,CK1γ2,< 15 % enzymatic activity
same,enzymatic activity of IRAK1,IRAK1 [3],< 15 % enzymatic activity
same,enzymatic activity of MAP4K5,MAP4K5 [4],< 15 % enzymatic activity
same,enzymatic activity of NUAK1,NUAK1,< 15 % enzymatic activity
same,enzymatic activity of TAK1,TAK1 [5],< 15 % enzymatic activity
same,enzymatic activity of ULK2,ULK2 [6],< 15 % enzymatic activity
same,IC50,CAMKKβ-1,1280 nM
same,IC50,CLK2,29 nM
same,IC50,CSNK1G2,809 nM
same,IC50,GCK,33 nM
same,IC50,IRAK1 [7],264 nM
same,IC50,MAP4K5 [8],124 nM
same,IC50,MLK1,5590 nM
same,IC50,NUAK,270 nM
same,IC50,TAK1 [9],8 nM
same,IC50,ULK2 [10],63 nM
same,attenuation (reduction) of TNF expression,THP-1 human macrophages,11 fold
same,time of Cmax post gavage,[2]; 50 mg/kg oral gavage,2 h
same,time post gavage up to which M (μM) plasma concentration was shown,[2]; 50 mg/kg oral gavage,8 to 12 h
same,peak in urine concentration,"[2]; 50 mg/kg oral gavage, at 12 hours",100 µM
same,Cmax,"[2]; male, Sprague Dawley, rat, plasma, 50 mg/kg oral gavage",1890 nM
same,oral bioavailability,"[2]; rat, in vivo, po",high
same,reduction of clinical arthritis score,"[11]; 10 mg/kg, PO",18%
same,reduction of clinical arthritis score,"[11]; 30 mg/kg, PO",35%
same,reduction of AUC of clinical arthritis scores vs disease control,"[11]; 50 mg/kg IP, QD days 21-26, Q2D days 27-36, FIG. 3C",85%
same,disease incidence on day 36,"[11]; 50 mg/kg IP, QD days 21-26, Q2D days 27-36, n=12",75%
same,reduction of bone resorption score vs vehicle,[11]; [15],87%
same,reduction of cartilage damage score vs vehicle,[11]; [15],76%
same,reduction of inflammation score vs vehicle,[11]; [15],62%
same,reduction of pannus score vs vehicle,[11]; [15],86%
same,reduction of periosteal bone formation score vs vehicle,[11]; [15],93%
same,reduction in clinical arthritis scores vs vehicle,"[11]; 50 mg/kg, IP, once daily, FIG. 4A",85%
same,reduction in disease clinical score (AUC),"[11]; IP dosing (25 mg/kg, QD)",36%
same,reduction in disease clinical score (AUC),[11]; oral dosing (PO),35%
same,reduction of arthritis score vs etanercept-refractory animals switched to vehicle,[12],40%
same,blood chemistries or complete blood counts,[13],no significant differences
same,body weight change,[13],no significant weight loss
same,morbidity,[13],no signs of morbidity
same,"relative organ weights (liver, heart, thymus, kidneys, brain, spleen)",[13],no significant weight loss; also recorded: did not cause any significant or dose-dependent changes; also recorded: not cause a significant or dose-dependent change
same,water solubility,Water solubility,good
NC(=O)c1cccc(C(=O)/N=c2\[nH]c3ccc(CO)cc3n2[C@H]2CC[C@H](O)CC2)c1 [Compound 7],IC50,TAK1 [1]; read-out: IC50 (TAK1),1.6 nM
same,IC50,IRAK4,8.2 nM
same,Ratio IC50 (IRAK4)/IC50 (TAK1),IRAK4,5
"CN(Cc1cnc2nc(N)nc(N)c2n1)c1ccc(C(=O)N[C@@H](CCC(=O)O)C(=O)O)cc1 [methotrexate, reference compound]",reduction in clinical arthritis scores vs vehicle,"[11]; 1 mg/kg, PO, once daily, FIG. 4C",72%
"C[C@@H]1CCN(C(=O)CC#N)C[C@@H]1N(C)c1ncnc2[nH]ccc12 [tofacitinib, reference compound]",TNF secretion,"THP-1 human macrophages; LPS and IFNγ challenge, FIG. 1D",minimal to no TNF reduction
same,reduction in clinical arthritis scores vs vehicle,"[11]; 30 mg/kg, PO, twice daily (BID), FIG. 4D",50%
etanercept,reduction in clinical arthritis scores vs vehicle,"[11]; 10 mg/kg, IP, once daily, FIG. 4B",57%
"takinib [Compound 1, reference compound]",IC50,TAK1 [1]; read-out: IC50 (TAK1),9 nM
same,affinity for IRAK4 less than TAK1,IRAK4,~12 fold
same,IC50,IRAK4; read-out: IC50 (IRAK4),120 nM
same,Ratio IC50 (IRAK4)/IC50 (TAK1),IRAK4,13
same,bioavailability,[14],low
